Holding throughout (format): functional, cell-based
In test [1] the test system is SK-OV-3. Put plainly: The compound was evaluated for the cytotoxicity against human SKOV-3 (ovarian) tumor cell lines.
Test [2] deals with HT-29. Put plainly: The compound was evaluated for the cytotoxicity against human HT-29 (colon) tumor cell lines.
Test [3] concerns CH1. Put plainly: The compound was evaluated for the cytotoxicity against human CH1 (ovarian) tumor cell lines.
Test [4] relates to A2780. Put plainly: The compound was evaluated for the cytotoxicity against human A2780 (ovarian) tumor cell lines.
In test [5] the test system is A2780cisR. Description: The compound was evaluated for the cytotoxicity against human A2780cisR (ovarian) tumor cell lines.

A value given as a limit tells only on which side of the number the result lay.

`COc1cc(C(=O)O[C@H](C(N)=O)[C@@]2(C)CO2)c2cccc(C)c2c1`: the IC50 was 2.3 µM in test [1]; 0.61 µM in test [2] (Homo sapiens, HT-29); 0.062 µM in test [3]; 0.058 µM in test [4]; 0.155 µM in test [5] (Homo sapiens, A2780cisR).
Consider CISPLATIN, for which the half-maximal inhibitory concentration (IC50) stood at 1.7 µM in test [2] (ht-29) and 3 µM in test [5] (a2780cisr).
As for `COc1cc(C(=O)O[C@H](C(N)=O)[C@]2(C)CO2)c2cccc(C)c2c1`, the IC50 is 1.25 µM in test [1]; 0.33 µM in test [2] (Homo sapiens, HT-29); less than 0.05 µM in test [3]; less than 0.05 µM in test [4]; 0.076 µM in test [5] (Homo sapiens, A2780cisR).
`C[C@@]1([C@H](OC(=O)c2ccc3ccccc3c2)C(N)=O)CO1`: the IC50 in test [1] was 13 µM; in test [2] (Homo sapiens, HT-29), 2.6 µM; in test [3], 0.17 µM; in test [4] it was 0.39 µM; in test [5] (Homo sapiens, A2780cisR), 1.35 µM.
In the same order, the values of `CC1([C@H](OC(=O)c2cccc3ccccc23)C(N)=O)CC1` are greater than 25 µM, greater than 25 µM, greater than 25 µM, greater than 25 µM and greater than 25 µM.
For `C[C@@]1([C@H](OC(=O)c2cnc3ccccc3n2)C(N)=O)CO1`, in that order: greater than 25 µM, greater than 25 µM, greater than 25 µM, greater than 25 µM and greater than 25 µM.
In the same order, the values of `C[C@@]1([C@H](OC(=O)c2ccccc2)C(N)=O)CO1` are greater than 25 µM, greater than 25 µM, greater than 25 µM, 20.5 µM and greater than 25 µM.
Consider `CO[C@@]12[C@H](COC(N)=O)C3=C(C(=O)C(C)=C(N)C3=O)N1C[C@@H]1N[C@@H]12` [MITOMYCIN], for which the IC50 in test [1] was 0.2 µM; in test [2] (Homo sapiens, HT-29) it was 0.04 µM; in test [3], 0.04 µM; in test [4], 0.05 µM; in test [5] (Homo sapiens, A2780cisR) it was 0.06 µM.
Turning to `CCOc1cc(C(=O)O[C@H](C(N)=O)[C@]2(C)CO2)c2cccc(C)c2c1`, the IC50 is 12 µM in test [1]; 4.3 µM in test [2] (Homo sapiens, HT-29); 1.4 µM in test [3]; 1.8 µM in test [4]; 3.5 µM in test [5] (Homo sapiens, A2780cisR).
As to `CCOC(=O)[C@@H](NC(=O)[C@@H](OC(=O)c1ccc(C)c2cc(OC)ccc12)[C@]1(C)CO1)C(C)C`, the IC50 in test [1] was 2.95 µM; in test [2] (Homo sapiens, HT-29), 2.25 µM; in test [3], 0.315 µM; in test [4] it was 0.35 µM; in test [5] (Homo sapiens, A2780cisR), 0.56 µM.
With `CCOC(=O)CNC(=O)[C@@H](OC(=O)c1cc(OC)cc2c(C)cccc12)[C@]1(C)CO1`, the IC50 in test [1] stood at 7.3 µM; in test [2] (Homo sapiens, HT-29), 2.25 µM; in test [3] it was 0.26 µM; in test [4], 0.34 µM; in test [5] (Homo sapiens, A2780cisR) it was 0.83 µM.
In the same order, the values of `C[C@@]1([C@H](OC(=O)c2cccc3ccccc23)C(N)=O)CO1` are 5.1 µM, 2.15 µM, 0.55 µM, 0.44 µM and 1.1 µM.

The term IC50 denotes the concentration that gives 50% inhibition. Read a high IC50 as weaker potency in that assay.
